Laboratory results from publication PMC8007387 (Clinical Pharmacokinetics, 2021).
Like-named read-outs stand apart in the source and are kept apart here.

Tests used:
[1] = in vivo, cited from earlier work
cathepsin A = conditions: cited from earlier work
OATP1B1 [2] = conditions: cited from earlier work
[3] = test system: aryl hydrocarbon receptor; conditions: cited from earlier work
MERS-CoV = conditions: rhesus monkey, in vivo; cited from earlier work
CYP2D6 = conditions: recombinant enzyme; cited from earlier work
MATE1 = conditions: cited from earlier work
[4] = human; cited from earlier work
clinical [5] = conditions: male, human, in vivo
OATP1B1 [6] = conditions: cited from earlier work; remark: listed apart in the source
CYP3A = conditions: recombinant enzyme; cited from earlier work
CES-1, CatA and CYP3A = test system: CES-1, CatA and CYP3A; parameters: species or system human
[7] = both, human, in vivo
CYP3A4 = conditions: cited from earlier work
[8] = male, human, in vivo
CYP2C8 = conditions: recombinant enzyme; cited from earlier work
pregnane X receptor = conditions: cited from earlier work
P-glycoprotein = conditions: cited from earlier work
OATP1B3 = conditions: cited from earlier work
[9] = in vivo; cited from earlier work
[10] = human, plasma; cited from earlier work
carboxylesterase 1 = conditions: cited from earlier work
in vivo = conditions: rhesus monkey, iv
[11] = monkey, in vivo
clinical [12] = conditions: both, human, in vivo
[13] = human, in vivo
cytochrome P450 (CYP) 3A = conditions: cited from earlier work
QTcF interval = conditions: in vivo
[14] = Sprague-Dawley, rat, in vivo, iv, 10 mg/kg

**Q.** With `CCC(CC)COC(=O)[C@H](C)N[P@](=O)(OC[C@H]1O[C@@](C#N)(c2ccc3c(N)ncnn23)[C@H](O)[C@@H]1O)Oc1ccccc1` [RDV, 2-ethylbutyl N-{(S)-[2-C(4-aminopyrrolo[2,1-f][1,2,4]triazin-7-yl)-2-5-anhydro-d-altrononitril-6-O-yl]phenoxyphosphoryl}-L-alaninate] as the compound, how does the accumulation [1] read?
**A.** The accumulation was “lack of accumulation”.

**Q.** What about the “contribution to total metabolism” value (cathepsin A) of the same compound?
**A.** Its value is 10%.

**Q.** And the “inhibition of OATP1B1” value (OATP1B1 [2])?
**A.** Its value is “weak inhibitor”.

**Q.** What about the “induction of enzymes or transporters via aryl hydrocarbon receptor” value [3] of the same compound?
**A.** Its value is “no potential for induction”.

**Q.** What about the “lung viral loads lower in each lung lobe” value (MERS-CoV) of the same compound?
**A.** Its value is 2.5–4 logs.

**Q.** What about the “lung viral loads versus vehicle-treated animals” value (MERS-CoV) of the same compound?
**A.** The value was “lower when all lung lobes were combined”.

**Q.** What about the “prophylactic efficacy versus vehicle-treated animals” value (MERS-CoV) of the same compound?
**A.** The value was “significant reduction in clinical scores, clinical signs of respiratory disease, and viral RNA levels”.

**Q.** And the “metabolism by CYP2D6” value (CYP2D6)?
**A.** Its value is “can be metabolized”.

**Q.** What about the “inhibition of MATE1” value (MATE1) of the same compound?
**A.** The value was “weak inhibitor”.

**Q.** What about the “mean whole blood/plasma concentration ratio” value [4] of the same compound?
**A.** Its value is 0.76.

**Q.** What about the clearance (clinical [5]) of the same compound?
**A.** The clearance was 1170 mL/min.

**Q.** And the half-life (clinical [5]; iv, 150 mg)?
**A.** The half-life was ~1 h.

**Q.** And the CL renal (clinical [5]; renal clearance CLr)?
**A.** The CL renal was 129 mL/min.

**Q.** And the “substrate for OATP1B1” value (OATP1B1 [6])?
**A.** The value was “substrate”.

**Q.** And the “metabolism by CYP3A” value (CYP3A)?
**A.** Its value is “can be metabolized”.

**Q.** What about the extraction ratio (CES-1, CatA and CYP3A) of the same compound?
**A.** Its extraction ratio is 0.6–0.8.

**Q.** And the “median time of occurrence of maximum observed plasma concentration” value [7]?
**A.** The value was ~ 0.7 h.

**Q.** And the “inhibition of CYP3A4” value (CYP3A4)?
**A.** Its value is “weak inhibitor”.

**Q.** And the “blood-to-plasma ratio of [14C]-radioactivity” value [8]?
**A.** The value was 0.68.

**Q.** What about the “mean total recovery of the radioactive dose” value [8] of the same compound?
**A.** The value was > 92%.

**Q.** And the “radioactive dose recovered in feces” value [8]?
**A.** Its value is ~18%.

**Q.** And the “radioactive dose recovered in urine” value [8]?
**A.** Its value is “approximately 74%”.

**Q.** And the “metabolism by CYP2C8” value (CYP2C8)?
**A.** The value was “can be metabolized”.

**Q.** What about the “induction of enzymes or transporters via pregnane X receptor” value (pregnane X receptor) of the same compound?
**A.** Its value is “no potential for induction”.

**Q.** And the “substrate for P-glycoprotein” value (P-glycoprotein)?
**A.** The value was “substrate”.

**Q.** What about the “inhibition of OATP1B3” value (OATP1B3) of the same compound?
**A.** Its value is “weak inhibitor”.

**Q.** What about the “dose recovered in urine as this analyte” value [9] of the same compound?
**A.** The value was 10.3%.

**Q.** And the “protein binding (bound)” value [10]?
**A.** The value was 88–93.6%.

**Q.** And the “contribution to total metabolism” value (carboxylesterase 1)?
**A.** The value was 80%.

**Q.** And the AUC(0-t) (in vivo)?
**A.** Its AUC(0-t) is 1430 ng·h/mL.

**Q.** What about the Cmax (in vivo) of the same compound?
**A.** Its Cmax is 3350 ng/mL.

**Q.** And the “administered radioactivity recovered in feces” value [11]?
**A.** The value was 25.6%.

**Q.** And the “administered radioactivity recovered in urine” value [11]?
**A.** Its value is 33.6%.

**Q.** What about the AUC (clinical [12]; 100 mg) of the same compound?
**A.** The AUC was 1590 ng·h/mL.

**Q.** What about the Cmax (clinical [12]; 100 mg) of the same compound?
**A.** Its Cmax is 2230 ng/mL.

**Q.** What about the Tmax (clinical [12]; 100 mg) of the same compound?
**A.** The Tmax was 0.68 h.

**Q.** What about the clearance (clinical [12]; 100 mg, CLss, mean (%CV)) of the same compound?
**A.** The clearance was ~1080 mL/min.

**Q.** And the half-life (clinical [12]; 100 mg, t1/2, median (Q1, Q3))?
**A.** Its half-life is 0.96 h.

**Q.** What about the AUC(0-t) (clinical [12]; 200 mg) of the same compound?
**A.** Its AUC(0-t) is 2860 ng·h/mL.

**Q.** And the Cmax (clinical [12]; 200 mg)?
**A.** Its Cmax is 4380 ng/mL.

**Q.** And the Tmax (clinical [12]; 200 mg)?
**A.** Its Tmax is 0.67 h.

**Q.** What about the half-life (clinical [12]; 200 mg, t1/2, median (Q1, Q3)) of the same compound?
**A.** Its half-life is 0.9 h.

**Q.** What about the AUC (clinical [12]; iv) of the same compound?
**A.** Its AUC is 1590 ng·h/mL.

**Q.** What about the half-life (clinical [12]; median t1/2) of the same compound?
**A.** The half-life was ~1 h.

**Q.** What about the “graded ALT abnormalities” value ([13]; both) of the same compound?
**A.** Its value is “eight participants with Grade 1 and 1 subject with Grade 2 ALT abnormalities”.

**Q.** What about the “infusion-site phlebitis, participants” value ([13]; both) of the same compound?
**A.** Its value is 40%.

**Q.** What about the “serious AEs, Grade 3 or 4 AEs, deaths” value ([13]; both) of the same compound?
**A.** The value was “no serious AEs, Grade 3 or 4 AEs, or deaths”.

**Q.** And the “graded ALT abnormalities” value [13]?
**A.** Its value is “no graded alanine aminotransferase (ALT) abnormalities”.

**Q.** And the overall tolerability [13]?
**A.** Its overall tolerability is “generally well tolerated”.

**Q.** And the “transient Grade 1 AST abnormalities” value [13]?
**A.** Its value is “four of the nine participants with graded ALT abnormalities”.

**Q.** And the “CYP-dependent hepatic metabolism, share of total hepatic clearance” value (cytochrome P450 (CYP) 3A)?
**A.** The value was 10%.

**Q.** And the “contribution to total metabolism” value (cytochrome P450 (CYP) 3A)?
**A.** Its value is 10%.

**Q.** And the “upper bound of two-sided 90% CI of predicted mean ΔΔQTcF” value (QTcF interval; human)?
**A.** Its value is < 10 ms.

**Q.** What about the QTcF interval prolongation (QTcF interval) of the same compound?
**A.** Its QTcF interval prolongation is “do not cause QTcF interval prolongation”.

**Q.** And the “administered radioactivity excreted in feces” value [14]?
**A.** Its value is 27.8%.

**Q.** What about the “administered radioactivity excreted in urine” value [14] of the same compound?
**A.** The value was 63.0%.

**Q.** What about the “time within which most of the radioactivity was excreted” value [14] of the same compound?
**A.** The value was ≤ 48 h.

**Q.** With `N#C[C@@]1(c2ccc3c(N)ncnn23)O[C@H](CO)[C@@H](O)[C@H]1O` [GS-441524] as the compound, how does the t1/2 ([1]; 150 mg) read?
**A.** Its t1/2 is ~ 24.5 h.

**Q.** And the “dose dependence of PK” value ([1]; iv)?
**A.** The value was “linear pharmacokinetics”.

**Q.** What about the accumulation in plasma [1] of the same compound?
**A.** Its accumulation in plasma is “approximately 1.9 fold”.

**Q.** What about the “steady state reached by day” value [1] of the same compound?
**A.** Its value is 4 days.

**Q.** And the “steady state reached on day” value [1]?
**A.** The value was 4 days.

**Q.** And the CL renal (clinical [5]; estimated secretory clearance CLr,s)?
**A.** Its CL renal is 31 mL/min.

**Q.** What about the Tmax (clinical [5]; iv) of the same compound?
**A.** The Tmax was 3 h.

**Q.** What about the CL renal (clinical [5]; renal clearance CLr) of the same compound?
**A.** Its CL renal is 151 mL/min.

**Q.** And the “secretory clearance as share of CLr” value [8]?
**A.** The value was 21 % of CLr.

**Q.** And the “dose recovered in urine as this analyte” value [9]?
**A.** The value was 48.6%.

**Q.** What about the AUC (clinical [12]; 100 mg) of the same compound?
**A.** The AUC was 2230 ng·h/mL.

**Q.** And the Cmax (clinical [12]; 100 mg)?
**A.** The Cmax was 145 ng/mL.

**Q.** And the Tmax (clinical [12]; 100 mg)?
**A.** Its Tmax is 1.51 h.

**Q.** What about the half-life (clinical [12]; 100 mg, t1/2, median (Q1, Q3)) of the same compound?
**A.** Its half-life is 27.4 h.

**Q.** And the AUC(0-t) (clinical [12]; 200 mg)?
**A.** The AUC(0-t) was 2190 ng·h/mL.

**Q.** What about the Cmax (clinical [12]; 200 mg) of the same compound?
**A.** The Cmax was 143 ng/mL.

**Q.** And the Tmax (clinical [12]; 200 mg)?
**A.** Its Tmax is 2 h.

**Q.** And the QTcF interval prolongation (QTcF interval)?
**A.** Its QTcF interval prolongation is “do not cause QTcF interval prolongation”.
